Test results published in patent US6995154B2, “Heterocyclic topoisomerase poisons” (Rutgers, The State University of New Jersey, priority 1997, dated 2006).

Key:
RPMI 8402 cells = assay: Test B. MTT cytotoxicity assay (MTA), RPMI 8402; format: cell-based; settings: RPMI 8402 human lymphoblast; continuous drug exposure, MTT at end of fourth day
Description: (§1) Test B. Cytotoxicity Assay
(§2) Cytotoxicity was determined using the MTT-microtiter plate tetrazolinium cytotoxicity assay (MTA) (See Chen A. Y. et al. Cancer Res. 1993, 53, 1332; Mosmann, T. J., J. Immunol. Methods 1983, 65, 55; and Carmichael, J. et al. Cancer Res. 1987, 47, 936). The human lymphoblast RPMI 8402 and its camptothecin-resistant variant cell line, CPT-K5 were provided by Dr. Toshiwo Andoh (Aichi Cancer Center Research Institute, Nagoya, Japan) (see Andoh, T.; Okada, K. “Drug resistance mechanisms of topoisomerase I drugs,” Adv. in Pharmacology 1994, 29B, 93. The cytotoxicity assay was performed using 96-well microtiter plates. Cells were grown in suspension at 37° C. in 5% CO2 and maintained by regular passage in RPMI medium supplemented with 10% heat-inactivated fetal bovine serum, L-glutamine (2 mM), penicillin (100 U/mL), and streptomycin (0.1 mg/mL). For determination of IC50, cells were exposed continuously with varying concentrations of drug and MTT assays were performed at the end of the fourth day.

[1] = tested on: CPT-K5 (camptothecin-resistant variant of RPMI 8402); assay: Test B. MTT cytotoxicity assay (MTA), CPT-K5; format: cell-based, human; settings: continuous drug exposure, MTT at end of fourth day
Description: as §1, §2

human topoisomerase I = biological target: T1, human topoisomerase I (Homo sapiens, UniProt P11387); assay: Test A. Topoisomerase I Cleavage Assay; format: biochemical; settings: concentration relative to compound 5 (arbitrarily assumed as 1) producing the same cleavage on plasmid DNA with human topoisomerase I
T1 construct: unnamed fusion partner (recombinant fusion protein); made in house
T1 sequence (P11387 1-765): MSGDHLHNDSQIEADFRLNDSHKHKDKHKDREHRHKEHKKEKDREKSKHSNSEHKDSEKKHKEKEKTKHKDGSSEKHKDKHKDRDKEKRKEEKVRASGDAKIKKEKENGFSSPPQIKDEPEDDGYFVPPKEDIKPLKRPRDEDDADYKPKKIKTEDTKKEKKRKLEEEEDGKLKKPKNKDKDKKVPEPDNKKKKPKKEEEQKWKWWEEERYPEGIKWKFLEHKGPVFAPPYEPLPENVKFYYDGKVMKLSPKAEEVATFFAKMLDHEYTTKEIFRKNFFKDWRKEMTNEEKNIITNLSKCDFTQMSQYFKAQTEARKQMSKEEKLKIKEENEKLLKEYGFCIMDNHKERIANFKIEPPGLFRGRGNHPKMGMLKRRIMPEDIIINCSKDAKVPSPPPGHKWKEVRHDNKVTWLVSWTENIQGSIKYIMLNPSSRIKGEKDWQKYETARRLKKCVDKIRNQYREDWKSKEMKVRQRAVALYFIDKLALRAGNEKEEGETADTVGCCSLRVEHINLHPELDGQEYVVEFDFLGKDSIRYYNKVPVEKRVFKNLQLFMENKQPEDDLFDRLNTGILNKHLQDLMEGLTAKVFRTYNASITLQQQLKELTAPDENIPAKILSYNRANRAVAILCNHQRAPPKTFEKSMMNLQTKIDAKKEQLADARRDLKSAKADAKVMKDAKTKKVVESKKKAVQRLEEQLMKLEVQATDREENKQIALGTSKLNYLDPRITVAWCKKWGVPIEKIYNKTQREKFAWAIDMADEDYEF
Description: Test A. Topoisomerase I Cleavage Assay
Representative compounds of the invention were evaluated in a cleavage assay using recombinant topoisomerases I. This assay was preformed as described by B. Gatto et al. Cancer Res., 1996, 56, 2795–2800. Human topoisomerase I was isolated as a recombinant fusion protein using a T7 expression system. Plasmid YEpG was purified by the alkali lysis method followed by phenol deproteination and CsCl/ethidium isopycnic centrifugation as described by Maniatis, T.; Fritsch, E. F.; Sambrook, J. Molecular Cloning, a Laboratory Manual; Cold Spring Harbor Laboratory: Cold Spring Harbor, N.Y. 1982; pp 149–185. The end-labeling of the plasmid was accomplished by digestion with a restriction enzyme followed by end-filling with Klenow polymerase as previously described by Liu, L. F.; Rowe, T. C.; Yang, L.; Tewey, K. M.; Chen, G. L. “Cleavage of DNA by mammalian topoisomerase II,” J. Biol. Chem. 1983, 258, 15365. IC50 values were calculated after 4 days of continuous drug exposure. Topoisomerase I cleavage values are reported as REC, Relative Effective Concentration (i.e., concentrations relative to compound 5, whose value is arbitrarily assumed as 1) that is able to produce the same cleavage on the plasmid DNA in the presence of human topoisomerase I.

Row | Compound | IC50 (RPMI 8402 cells) [nM] | IC50 [1] [nM] | Topo I-mediated DNA cleavage (REC, Relative Effective Concentration) (human topoisomerase I)
1 | O=c1[nH]c2ccc(-c3nc4cc(-c5nc6cc(-c7ccccc7)ccc6[nH]5)ccc4[nH]3)cc2[nH]c1=O [Compound 4, 5-Phenyl-2′-(quinoxalinedione-6-yl)bibenzimidazole] | 20000 | > 20000 | 
2 | c1ccc(-c2ccc3[nH]c(-c4ccc5[nH]c(-c6ccc7nccnc7c6)nc5c4)nc3c2)cc1 [Compound 3, 5-Phenyl-2′-(quinoxaline-6-yl)-bibenzimidazole] | 2300 | 21000 | 1
3 | c1ccc(-c2ccc3[nH]c(-c4ccc5[nH]c(-c6ccc7[nH]nnc7c6)nc5c4)nc3c2)cc1 [Compound 2, 5-Phenyl-2′-(benzotriazol-5-yl)-bibenzimidazole] | 470 | 470 | 1
